≈ marks a conversion by molar mass, not a printed value.
Legend:
Aspergillus keratitis = settings: 0.02%; cited from earlier work
Fusarium Keratomycosis = settings: 0.02% solution, rabbit model; cited from earlier work
Acanthamoeba keratitis = settings: case report, recurrence in corneal graft; cited from earlier work
[1] = Loss of Alexidine due to non-specific binding to glass vial at different pH; format: physicochemical; settings: 20 ppm, two weeks
Description: Alexidine sample solutions (20 ppm) were prepared at different pHs and quantitative amount were stored in glass vial for two weeks. At the end of storage, the sample solution was removed and thoroughly rinsed with distilled water. The empty sample vials were then rinsed with 0.1 N HCl solution. The concentration of Alexidine in the acid solution was determined by HPLC assay and the amount recovered from glass wall was calculated in Table 1.

[2] = Anterior ocular and systemic pharmacokinetics after repeated topical ocular administration (TID, 10 doses); format: in vivo, male New Zealand Composite rabbits; settings: for AUC(0-24) / DNAUC(0-24) / Cmax / Tmax: TID dosing (dose 10), 10 μg/eye; for Cmax / Tmax: topical or ocular, 10 ug
Description: This study was to investigate anterior ocular and systemic pharmacokinetics of alexidine following repeated topical ocular administration (3 doses/day; 10 doses total) of a 100 ppm solution to male New Zealand Composite rabbits.
This study was carried out using a non-crossover design and a total of 52 naïve male New Zealand Composite rabbits. Each animal (fed) received a topical ocular dose of alexidine at approximately 7 am, 12 noon and 5 pm on Day 1, Day 2 and Day 3. On the morning of Day 4, each animal received the final (10th) topical ocular dose. For each dose administration, animals received approximately 100 μL of a 100 ppm solution (10 μg dose) as a topical instillation into the conjunctival sac of each eye using a positive-displacement pipette.
On Day 4, rabbits (n=4 per collection time) were euthanized and the eyes enucleated and dissected. Samples of blood (centrifuged to obtain plasma), tear, conjunctiva, cornea, and aqueous humor were obtained from both eyes of each animal. Samples were collected prior to administration of the final dose, and 5, 15, and 30 min and 1, 2, 4, 8, 24, 32, 48, 56, and 72 hr after dosing. Non-compartmental methods were used for pharmacokinetic analysis of concentration versus time data. Due to the destructive sampling regimen employed in this study average composite data were used in the pharmacokinetic analysis.
Abbreviations used in this diagram are as follows. Cmax is defined as the maximum mean concentration attained after topical instillation (±SD). Tmax is the time that Cmax was observed.

[3] = Pharmacokinetics after single topical ocular dose 10 μg/eye (BL06029); format: in vivo, rabbit; settings: single dose 10 μg/eye (BL06029); for Cmax / Tmax: rabbit, topical or ocular, 10 ug
[4] = system: acantamoeba cysts and trophazoites; settings: cited from earlier work
[5] = male, New Zealand Composite, rabbit, Conjunctiva
[6] = male, New Zealand Composite, rabbit, Cornea

poly(hexamethylene biguanide) [PHMB]
effectiveness in experimental Aspergillus keratitis (Aspergillus keratitis): moderately effective | reducing fungal growth (Fusarium Keratomycosis): effective at reducing fungal growth | treatment of recurrences of Acanthamoeba keratitis (Acanthamoeba keratitis): successfully treated

CCCCC(CC)CNC(=N)NC(=N)NCCCCCCNC(=N)NC(=N)NCC(CC)CCCC (stereo not drawn) [Alexidine, 1,1′-hexamethylene-bis[5-(2-ethylhexyl)biguanide]]
% Adsorbed on Glass Vial ([1]; pH 3): 1.0% | % Adsorbed on Glass Vial ([1]; pH 5): 4.0% | % Adsorbed on Glass Vial ([1]; pH 7): 7.5% | % Adsorbed on Glass Vial ([1]; pH 9): 12.5% | % Adsorbed on Glass Vial ([1]; pH 11): 23.5% | AUC(0-24) ([2]; Conjunctiva): 11461 µg·min/g | DNAUC(0-24) ([2]; Conjunctiva): 1146 (min · ug/g) ÷ ug | AUC(0-24) ([2]; Cornea): 2727 µg·min/g | DNAUC(0-24) ([2]; Cornea): 273 (min · ug/g) ÷ ug | mean concentrations in conjunctiva ([2]; at all times through the 72 hr after the final 10-μg dose): ≥ 5100 ng/g | AUC(0-t) ([2]; male, New Zealand Composite, rabbit, conjunctiva, topical, repeated administration of a 10-μg dose, value used for AUC:MIC90 ratio, read-out: AUC(0-24)): 191 µg·h/mL | Cmax [2, 5]: 15100 ± 4120 ng/g | Tmax [2, 5]: 5 min | Cmax [2, 6]: 3740 ± 1790 ng/g | Tmax [2, 6]: 30 min | tolerability ([2]; repeated administration of a 100 ppm solution, topical ocular): well tolerated in all animals | levels in aqueous humor ([3]; Aq. Humor): No Quantifiable levels (<0.5 ng/mL) | AUC(0-24) ([3]; Conjunctiva): 5697 µg·min/g | DNAUC(0-24) ([3]; Conjunctiva): 570 (min · ug/g) ÷ ug | AUC(0-24) ([3]; Cornea): 557 µg·min/g | DNAUC(0-24) ([3]; Cornea): 55.7 (min · ug/g) ÷ ug | levels in plasma ([3]; Plasma): No Quantifiable levels (<0.5 ng/mL) | Cmax ([3]; Conjunctiva): 6440 ng/g | Tmax ([3]; Conjunctiva): 480 min | Cmax ([3]; Cornea): 997 ng/g | Tmax ([3]; Cornea): 15 min | minimum inhibitory concentration [4]: 6.3 µg/mL (≈ 12.4 µM)
